# Experimental data taken from paper PMC6877102, “A squalamine derivative, NV669, as a novel PTP1B inhibitor: in vitro and in vivo effects on pancreatic and hepatic tumor growth” (Oncotarget, 2019).
# Molecular target: T1, Protein Tyrosine Phosphatase 1B (PTP1B) (Homo sapiens, UniProt P18031)
# T1 construct: gene PTPN1; residues 1-322, C-terminal deletion
# T1 sequence (P18031 1-322): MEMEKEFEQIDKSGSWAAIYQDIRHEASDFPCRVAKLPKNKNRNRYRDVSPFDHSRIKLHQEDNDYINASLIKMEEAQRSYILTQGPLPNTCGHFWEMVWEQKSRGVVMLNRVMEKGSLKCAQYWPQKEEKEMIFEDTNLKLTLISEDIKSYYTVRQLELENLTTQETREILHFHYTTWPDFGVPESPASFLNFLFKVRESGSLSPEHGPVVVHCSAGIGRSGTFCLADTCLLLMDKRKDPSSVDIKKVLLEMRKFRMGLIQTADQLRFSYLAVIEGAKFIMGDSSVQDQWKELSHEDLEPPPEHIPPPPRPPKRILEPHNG
# Assay: Malachite green phosphate release assay with IR5 phosphopeptide on recombinant human PTP1B
# Assay type: biochemical
row,Structure (SMILES),Malachite green phosphate release assay with IR5 phosphopeptide on recombinant h
1,CC(C)CCC[C@@H](C)[C@H]1CCC2C3C[C@@H](O)C4=C[C@@H](NCCCNCCCCNCCCN)CC[C@]4(C)C3CC[C@@]21C (some centres unmarked) [NV669],we found that NV669 blocked significantly in vitro PTP1B activity in a dose- and time-dependent manner
2,CC(C)CCC[C@@H](C)[C@H]1CC[C@H]2[C@@H]3C[C@@H](NCCCNCCCCNCCCN)[C@H]4C[C@@H](O)CC[C@]4(C)[C@H]3CC[C@]12C [claramine],"Like claramine (a PTP1B inhibitor used here as positive control), we found that NV669 blocked significantly in vitro PTP1B activity"
